Literature values as cited in patent US20100105750A1, “STABLE METRONIDAZOLE GEL FORMULATIONS” (NYCOMED US INC., priority 2008, published 2010).

water soluble: 4 g/100 mL
Compound: OCc1ccccc1 [benzyl alcohol]
